Laboratory results taken from a compilation of properties of binary mixtures (doi:10.1016/j.molliq.2021.117187).

Assay: xn = mol fraction of the nth substance listed
Settings: 100 kPa

CCCC[n+]1ccn(C)c1.F[B-](F)(F)F + CCOC(C)=O
speed of sound [m/s]
Settings	x1 = 0.1012	x1 = 0.1992	x1 = 0.312	x1 = 0.3985	x1 = 0.5056	x1 = 0.5996	x1 = 0.7054	x1 = 0.7963	x1 = 0.9185
298.15 K	1186	1228.1	–	1307	1351.4	–	1437.5	–	–
303.15 K	1164.6	1207.8	–	–	1334.1	–	1422.3	–	1509.6
308.15 K	–	–	1232	1270.6	1317.1	1360.3	1407.5	–	1496.9
313.15 K	–	1167.6	–	1252.4	–	–	1392.6	1438.8	1484.1
318.15 K	–	1147.5	1193.9	1234.4	1283.1	1328.3	1377.8	1425.1	–
323.15 K	1080.1	1127.5	1175	1216.4	–	1312.6	1363.2	1411.6	1459.1
